Measurements: ChEMBL document CHEMBL5291721, “A preclinical secondary pharmacology resource illuminates target-adverse drug reaction associations of marketed drugs” (Nat Commun, 2023)

Assays:
D(3) dopamine receptor = D(3) dopamine receptor (Homo sapiens, UniProt P35462)
[1] = target: T1, Alpha-1A adrenergic receptor (Homo sapiens, UniProt P35348); format: functional, cell-based
T1 sequence (P35348 whole entry): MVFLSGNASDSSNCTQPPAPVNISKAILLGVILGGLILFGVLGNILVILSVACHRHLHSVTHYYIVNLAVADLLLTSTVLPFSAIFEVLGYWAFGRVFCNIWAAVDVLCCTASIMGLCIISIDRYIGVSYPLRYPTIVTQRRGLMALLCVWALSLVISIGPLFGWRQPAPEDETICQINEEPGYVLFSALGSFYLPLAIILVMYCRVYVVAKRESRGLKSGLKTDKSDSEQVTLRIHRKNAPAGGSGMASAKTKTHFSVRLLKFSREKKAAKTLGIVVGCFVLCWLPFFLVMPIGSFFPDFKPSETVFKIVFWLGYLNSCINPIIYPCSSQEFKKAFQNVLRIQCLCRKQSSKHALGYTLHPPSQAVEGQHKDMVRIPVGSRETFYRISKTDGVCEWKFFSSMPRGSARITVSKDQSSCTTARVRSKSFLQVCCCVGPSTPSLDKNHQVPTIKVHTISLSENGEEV

[2] = target: T2, 5-hydroxytryptamine receptor 1A (Homo sapiens, UniProt P08908)
T2 sequence (P08908 whole entry): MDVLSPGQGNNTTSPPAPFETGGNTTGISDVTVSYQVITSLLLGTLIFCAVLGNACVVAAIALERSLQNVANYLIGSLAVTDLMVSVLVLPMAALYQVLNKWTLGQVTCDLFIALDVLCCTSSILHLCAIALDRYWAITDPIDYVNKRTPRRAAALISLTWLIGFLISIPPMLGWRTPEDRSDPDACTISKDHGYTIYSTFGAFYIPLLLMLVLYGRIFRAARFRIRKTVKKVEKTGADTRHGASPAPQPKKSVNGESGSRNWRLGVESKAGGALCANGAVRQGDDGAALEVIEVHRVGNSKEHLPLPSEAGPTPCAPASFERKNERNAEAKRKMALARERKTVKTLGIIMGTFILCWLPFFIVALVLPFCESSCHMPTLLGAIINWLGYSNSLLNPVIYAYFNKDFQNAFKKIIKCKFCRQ

[3] = target: Sodium-dependent noradrenaline transporter (Homo sapiens, UniProt P23975)
Sodium-dependent noradrenaline transporter, sequence (P23975 whole entry): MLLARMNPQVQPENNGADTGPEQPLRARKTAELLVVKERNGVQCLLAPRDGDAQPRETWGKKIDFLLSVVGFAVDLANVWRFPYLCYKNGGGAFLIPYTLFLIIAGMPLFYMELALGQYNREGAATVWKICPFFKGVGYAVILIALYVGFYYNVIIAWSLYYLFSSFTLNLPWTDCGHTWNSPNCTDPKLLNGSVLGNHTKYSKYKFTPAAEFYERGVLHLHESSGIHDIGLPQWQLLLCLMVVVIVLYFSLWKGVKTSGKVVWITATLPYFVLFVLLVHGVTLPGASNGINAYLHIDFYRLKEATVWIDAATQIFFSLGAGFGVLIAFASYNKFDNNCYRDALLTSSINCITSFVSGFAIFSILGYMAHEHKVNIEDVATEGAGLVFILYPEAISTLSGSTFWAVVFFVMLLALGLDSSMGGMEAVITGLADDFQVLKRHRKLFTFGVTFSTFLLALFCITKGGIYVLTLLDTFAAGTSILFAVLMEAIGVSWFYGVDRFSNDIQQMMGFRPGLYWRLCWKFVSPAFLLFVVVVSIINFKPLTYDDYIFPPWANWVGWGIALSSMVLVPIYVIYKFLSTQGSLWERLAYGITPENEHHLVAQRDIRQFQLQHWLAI

Mu-type opioid receptor = Mu-type opioid receptor (Homo sapiens, UniProt P35372)
Mu-type opioid receptor, sequence (P35372 whole entry): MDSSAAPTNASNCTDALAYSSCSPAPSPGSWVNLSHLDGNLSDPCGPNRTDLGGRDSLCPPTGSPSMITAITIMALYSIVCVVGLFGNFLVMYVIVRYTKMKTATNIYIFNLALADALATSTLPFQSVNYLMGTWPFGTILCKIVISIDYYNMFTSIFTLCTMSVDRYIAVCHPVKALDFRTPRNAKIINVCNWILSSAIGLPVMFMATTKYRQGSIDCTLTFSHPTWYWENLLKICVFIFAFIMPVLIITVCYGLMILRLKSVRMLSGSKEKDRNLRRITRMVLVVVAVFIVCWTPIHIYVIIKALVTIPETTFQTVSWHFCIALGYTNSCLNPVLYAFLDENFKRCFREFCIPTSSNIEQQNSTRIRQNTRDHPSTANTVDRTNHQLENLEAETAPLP

[4] = target: cGMP-inhibited 3',5'-cyclic phosphodiesterase 3A (Homo sapiens, UniProt Q14432); format: functional
cGMP-inhibited 3',5'-cyclic phosphodiesterase 3A, sequence (Q14432 whole entry): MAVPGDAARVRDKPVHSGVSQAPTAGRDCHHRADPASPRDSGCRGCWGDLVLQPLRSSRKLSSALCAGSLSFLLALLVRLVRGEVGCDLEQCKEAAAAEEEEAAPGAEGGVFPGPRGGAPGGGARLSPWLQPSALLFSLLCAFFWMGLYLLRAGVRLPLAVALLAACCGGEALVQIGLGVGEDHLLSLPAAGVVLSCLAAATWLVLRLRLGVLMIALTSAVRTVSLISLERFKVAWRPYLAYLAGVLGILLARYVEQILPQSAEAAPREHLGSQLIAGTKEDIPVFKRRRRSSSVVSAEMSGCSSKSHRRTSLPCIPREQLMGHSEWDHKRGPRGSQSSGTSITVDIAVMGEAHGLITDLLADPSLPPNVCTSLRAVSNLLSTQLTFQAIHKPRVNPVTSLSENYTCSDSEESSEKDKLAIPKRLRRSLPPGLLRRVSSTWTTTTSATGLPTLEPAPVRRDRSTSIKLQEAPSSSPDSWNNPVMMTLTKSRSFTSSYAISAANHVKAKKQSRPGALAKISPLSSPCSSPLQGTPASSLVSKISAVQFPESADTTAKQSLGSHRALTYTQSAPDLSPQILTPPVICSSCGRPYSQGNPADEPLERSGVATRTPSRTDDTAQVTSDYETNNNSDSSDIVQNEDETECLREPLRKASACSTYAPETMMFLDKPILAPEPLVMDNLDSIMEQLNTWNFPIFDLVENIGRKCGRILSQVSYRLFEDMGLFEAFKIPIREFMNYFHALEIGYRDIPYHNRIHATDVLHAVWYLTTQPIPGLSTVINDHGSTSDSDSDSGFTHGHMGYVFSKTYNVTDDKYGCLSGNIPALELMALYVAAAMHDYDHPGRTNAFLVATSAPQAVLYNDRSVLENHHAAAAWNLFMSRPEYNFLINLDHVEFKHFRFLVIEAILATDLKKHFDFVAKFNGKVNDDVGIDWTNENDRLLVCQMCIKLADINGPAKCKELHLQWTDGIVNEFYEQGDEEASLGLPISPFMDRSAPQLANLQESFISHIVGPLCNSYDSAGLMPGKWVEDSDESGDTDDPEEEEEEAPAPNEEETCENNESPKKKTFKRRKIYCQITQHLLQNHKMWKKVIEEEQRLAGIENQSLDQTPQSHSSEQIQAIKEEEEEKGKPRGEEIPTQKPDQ

[5] = target: T3, Amine oxidase [flavin-containing] A (Homo sapiens, UniProt P21397); format: functional
T3 sequence (P21397 whole entry): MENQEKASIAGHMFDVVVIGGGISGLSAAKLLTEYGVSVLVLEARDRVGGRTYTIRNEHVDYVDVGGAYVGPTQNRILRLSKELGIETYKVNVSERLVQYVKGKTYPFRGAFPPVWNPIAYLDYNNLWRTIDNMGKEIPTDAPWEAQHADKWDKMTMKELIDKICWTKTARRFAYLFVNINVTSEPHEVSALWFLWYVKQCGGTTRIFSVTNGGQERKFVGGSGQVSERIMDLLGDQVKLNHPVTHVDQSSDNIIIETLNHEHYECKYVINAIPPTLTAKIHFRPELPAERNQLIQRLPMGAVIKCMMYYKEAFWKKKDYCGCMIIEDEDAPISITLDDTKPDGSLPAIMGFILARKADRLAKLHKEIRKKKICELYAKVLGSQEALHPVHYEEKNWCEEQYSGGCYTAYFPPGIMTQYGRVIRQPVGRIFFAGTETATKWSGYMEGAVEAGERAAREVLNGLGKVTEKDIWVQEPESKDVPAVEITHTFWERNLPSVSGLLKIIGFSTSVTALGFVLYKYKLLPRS

Vasopressin V2 receptor = Vasopressin V2 receptor (Homo sapiens, UniProt P30518)
Vasopressin V2 receptor, sequence (P30518 whole entry): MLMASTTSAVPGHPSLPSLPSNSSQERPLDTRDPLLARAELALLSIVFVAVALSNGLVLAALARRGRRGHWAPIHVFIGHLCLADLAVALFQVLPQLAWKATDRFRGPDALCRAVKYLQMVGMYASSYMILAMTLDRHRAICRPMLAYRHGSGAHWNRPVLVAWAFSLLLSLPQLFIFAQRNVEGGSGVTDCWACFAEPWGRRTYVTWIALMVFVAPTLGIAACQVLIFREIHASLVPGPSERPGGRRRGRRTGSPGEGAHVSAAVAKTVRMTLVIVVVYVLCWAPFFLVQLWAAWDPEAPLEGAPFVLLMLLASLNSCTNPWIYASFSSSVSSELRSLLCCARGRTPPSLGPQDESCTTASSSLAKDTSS

[6] = target: Kappa-type opioid receptor (Homo sapiens, UniProt P41145)
Kappa-type opioid receptor, sequence (P41145 whole entry): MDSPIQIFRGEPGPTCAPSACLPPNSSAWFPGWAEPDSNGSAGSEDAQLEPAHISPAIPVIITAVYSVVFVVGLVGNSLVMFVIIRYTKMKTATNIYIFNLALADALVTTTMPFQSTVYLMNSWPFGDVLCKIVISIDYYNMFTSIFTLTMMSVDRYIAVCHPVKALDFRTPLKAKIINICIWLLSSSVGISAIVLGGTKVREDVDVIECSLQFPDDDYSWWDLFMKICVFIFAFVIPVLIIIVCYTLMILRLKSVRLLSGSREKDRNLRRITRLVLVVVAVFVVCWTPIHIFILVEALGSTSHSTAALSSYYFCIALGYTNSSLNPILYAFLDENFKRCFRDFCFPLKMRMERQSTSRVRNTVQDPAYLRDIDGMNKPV

[7] = target: T4, Muscarinic acetylcholine receptor M2 (Homo sapiens, UniProt P08172); format: functional, cell-based
T4 sequence (P08172 whole entry): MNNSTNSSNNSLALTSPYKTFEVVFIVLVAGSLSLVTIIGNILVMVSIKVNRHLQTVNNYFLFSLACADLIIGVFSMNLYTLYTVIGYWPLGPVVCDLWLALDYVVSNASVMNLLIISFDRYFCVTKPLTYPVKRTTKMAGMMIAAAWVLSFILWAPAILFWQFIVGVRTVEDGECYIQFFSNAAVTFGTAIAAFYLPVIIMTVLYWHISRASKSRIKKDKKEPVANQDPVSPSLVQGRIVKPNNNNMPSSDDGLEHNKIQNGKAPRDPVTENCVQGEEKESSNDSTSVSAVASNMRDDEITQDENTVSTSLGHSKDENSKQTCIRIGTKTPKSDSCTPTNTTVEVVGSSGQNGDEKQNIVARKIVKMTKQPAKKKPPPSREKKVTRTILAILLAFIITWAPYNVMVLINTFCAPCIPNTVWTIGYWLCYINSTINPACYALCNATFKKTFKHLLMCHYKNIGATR

[8] = target: T1, Alpha-1A adrenergic receptor; format: functional, cell-based; remark: listed apart in the source
Note: assay procedure not described here.

D(3) dopamine receptor, sequence (P35462 whole entry): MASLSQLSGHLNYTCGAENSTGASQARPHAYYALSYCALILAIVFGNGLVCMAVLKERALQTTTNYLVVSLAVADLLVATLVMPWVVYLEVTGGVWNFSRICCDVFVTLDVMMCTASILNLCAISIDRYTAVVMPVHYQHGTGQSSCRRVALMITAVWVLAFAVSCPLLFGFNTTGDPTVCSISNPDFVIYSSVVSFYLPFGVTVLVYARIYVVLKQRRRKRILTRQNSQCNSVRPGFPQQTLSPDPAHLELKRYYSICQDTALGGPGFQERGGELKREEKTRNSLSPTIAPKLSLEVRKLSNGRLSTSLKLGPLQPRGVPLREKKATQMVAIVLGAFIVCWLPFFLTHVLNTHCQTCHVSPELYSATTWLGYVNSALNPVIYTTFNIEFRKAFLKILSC

SMILES | AC50 (D(3) dopamine receptor) [µM] | AC50 [1] [µM] | AC50 [2] [µM] | AC50 [3] [µM] | AC50 (Mu-type opioid receptor) [µM] | AC50 [4] [µM] | AC50 [5] [µM] | AC50 (Vasopressin V2 receptor) [µM] | AC50 [6] [µM] | AC50 [7] [µM] | AC50 [8] [µM]
CCCCCCO[C@@H](C)c1cccc(-c2csc(NC(=O)c3cc(Cl)c(/C=C(\C)C(=O)O)c(Cl)c3)n2)c1OC [LUSUTROMBOPAG] | 8.41 | 13.5 | 6.96 | > 30 | > 30 | > 30 | > 30 | – | – | – | –
C[C@]12CC[C@@H]3c4ccc(OC(=O)N(CCCl)CCCl)cc4CC[C@H]3[C@@H]1CC[C@@H]2OP(=O)(O)O [ESTRAMUSTINE PHOSPHATE] | > 30 | > 30 | > 30 | > 30 | > 30 | > 30 | > 30 | – | – | – | –
CC(C)NC[C@H](O)COc1ccc(O)cc1 [PRENALTEROL] | > 30 | > 30 | > 30 | 4.55 | > 30 | > 30 | > 30 | – | – | – | –
O=P1(N(CCCl)CCCl)NCCCO1 (configuration not stated) [CYCLOPHOSPHAMIDE ANHYDROUS] | > 30 | > 30 | > 30 | > 30 | > 30 | > 30 | > 30 | – | – | – | –
C=CCOc1ccc(CC(=O)O)cc1Cl [ALCLOFENAC] | – | > 30 | > 30 | > 30 | > 30 | > 30 | > 30 | – | – | – | –
N#Cc1ccnc(N2C(=O)CC[C@H]2C(=O)N(c2cncc(F)c2)[C@H](C(=O)NC2CC(F)(F)C2)c2ccccc2Cl)c1 [IVOSIDENIB] | > 30 | > 30 | > 30 | > 30 | > 30 | > 30 | > 30 | – | – | – | –
NCCCNCCSP(=O)(O)O [AMIFOSTINE] | – | – | – | – | – | – | – | > 30 | > 30 | > 30 | –
OC[C@H]1NC[C@H](O)[C@@H](O)[C@H]1O | > 30 | > 30 | > 30 | > 30 | > 30 | > 30 | > 30 | – | – | – | –
O=c1[nH]c2ccccc2n1CCN1CCN(c2cccc(C(F)(F)F)c2)CC1 [FLIBANSERIN] | 0.286 | 0.391 | 0.003 | > 30 | 1.3 | > 30 | > 30 | – | – | – | –
C[C@@H](CN1CC(=O)NC(=O)C1)N1CC(=O)NC(=O)C1 [DEXRAZOXANE] | > 30 | > 30 | > 30 | > 30 | > 30 | > 30 | > 30 | – | – | – | –
COc1cccc2c1C(=O)c1c(O)c3c(c(O)c1C2=O)C[C@@](O)(C(=O)CO)C[C@@H]3O[C@H]1C[C@H](N)[C@H](O[C@@H]2CCCCO2)[C@H](C)O1 [PIRARUBICIN] | > 30 | > 10 | > 30 | > 30 | > 30 | > 30 | > 30 | – | – | – | –
CN1CCN(C(c2ccccc2)c2ccc(Cl)cc2)CC1 (configuration not stated) [CHLORCYCLIZINE] | 0.449 | 4.86 | 13.9 | 21.2 | > 30 | > 30 | > 30 | – | – | – | –
O=C(O)[C@H](O)[C@@H](O)[C@H](O)[C@H](O)CO [GLUCONIC ACID] | > 30 | > 30 | > 30 | > 30 | > 30 | > 30 | > 30 | – | – | – | –
CO[C@@]1(NC(=O)C(C(=O)O)c2ccc(O)cc2)C(=O)N2C(C(=O)O)=C(CSc3nnnn3C)CO[C@@H]21 (some centres not stated) [MOXALACTAM] | > 30 | > 30 | > 30 | > 30 | > 30 | > 30 | > 30 | – | – | – | –
O=NN(CCCl)C(=O)NC1CCCCC1 [LOMUSTINE] | > 30 | > 3 | > 30 | > 30 | > 30 | > 30 | > 30 | – | – | – | –
CC(C)(Oc1ccc(Cl)cc1)C(=O)NC(=O)NCN1CCOCC1 [PLAFIBRIDE] | > 30 | > 30 | > 30 | > 30 | > 30 | > 30 | > 30 | – | – | – | –
CCCCCCCC/C=C\CCCCCCCC(=O)O [OLEIC ACID] | > 30 | > 30 | > 30 | 27.2 | > 30 | > 30 | > 30 | – | – | – | –
N=C(N)NCC1COc2ccccc2O1 (configuration not stated) [GUANOXAN] | 8.54 | 21.3 | 1.27 | 5.56 | > 30 | > 30 | > 30 | – | – | – | –
CNC1(c2ccccc2Cl)CCCCC1=O (configuration not stated) [KETAMINE] | > 30 | > 30 | > 30 | > 30 | 7.63 | > 30 | > 30 | – | – | – | –
COC(=O)CCc1ccc(OCC(O)CNC(C)C)cc1 (configuration not stated) [ESMOLOL] | – | – | – | – | – | – | – | > 30 | > 30 | > 30 | > 30
CC1=C(C/C=C(\C)CCC[C@H](C)CCC[C@H](C)CCCC(C)C)C(=O)c2ccccc2C1=O [PHYTONADIONE] | > 30 | > 30 | > 30 | > 30 | > 30 | 3.44 | > 30 | – | – | – | –
CN1CCC(N(Cc2cccs2)c2ccccc2)CC1 [THENALIDINE] | 4.46 | 23.5 | 8.65 | 0.399 | 7.42 | > 30 | > 30 | – | – | – | –
Cc1cc(C)cc(OCC2CNC(=O)O2)c1 (configuration not stated) [METAXALONE] | > 30 | > 30 | > 30 | 10.2 | > 30 | > 30 | 15.4 | – | – | – | –
NC(=O)C1(N2CCCCC2)CCN(CCCN2c3ccccc3CCc3ccccc32)CC1 [CARPIPRAMINE] | 0.0207 | – | 2.83 | 11.7 | 0.342 | > 30 | > 30 | – | – | – | –
CCCCCCCCCCCCCCCC(=O)OC[C@H](COP(=O)([O-])OCC[N+](C)(C)C)OC(=O)CCCCCCCCCCCCCCC [COLFOSCERIL PALMITATE] | > 30 | > 30 | > 30 | > 30 | > 30 | > 30 | > 30 | – | – | – | –
O=C(O)[C@@H](S)[C@@H](S)C(=O)O | > 30 | – | > 30 | > 30 | > 30 | > 30 | > 30 | – | – | – | –
